The target in data set [1] is dopamine (DA) D1 receptors (Homo sapiens, UniProt P21728). Conditions: as described in PCT/DK04/000546; cited from earlier work.
The target in a further data set is DA D2 receptors (Homo sapiens, UniProt P14416). Conditions: as described in PCT/DK04/000546; cited from earlier work.
The target in the next data set is CYP2D6 (Homo sapiens, UniProt P10635). The note with it: as described in PCT/DK04/000546; cited from earlier work.
The next data set concerns the target dopamine D1 receptors (Homo sapiens, UniProt P21728). Conditions: as described in PCT/DK04/000546; cited from earlier work.
Another data set concerns the target dopamine D2 receptors (Homo sapiens, UniProt P14416). Conditions: as described in PCT/DK04/000546; cited from earlier work.
Data set [2] has as its target serotonin 5-HT2a receptors (Homo sapiens, UniProt P28223). The note with it: as described in PCT/DK04/000546; cited from earlier work.
The next data set concerns rabbit model. Conditions: as described in PCT/DK04/000546; cited from earlier work.
Data set [3] concerns pigs sensitized to haloperidol. Put plainly: dystonia in pigs sensitized to haloperidol. It counts as in vivo.
The test system of a further data set is alfa1 adrenoceptors. Conditions: as described in PCT/DK04/000546; cited from earlier work.

Sequence of serotonin 5-HT2a receptors (P28223 whole entry): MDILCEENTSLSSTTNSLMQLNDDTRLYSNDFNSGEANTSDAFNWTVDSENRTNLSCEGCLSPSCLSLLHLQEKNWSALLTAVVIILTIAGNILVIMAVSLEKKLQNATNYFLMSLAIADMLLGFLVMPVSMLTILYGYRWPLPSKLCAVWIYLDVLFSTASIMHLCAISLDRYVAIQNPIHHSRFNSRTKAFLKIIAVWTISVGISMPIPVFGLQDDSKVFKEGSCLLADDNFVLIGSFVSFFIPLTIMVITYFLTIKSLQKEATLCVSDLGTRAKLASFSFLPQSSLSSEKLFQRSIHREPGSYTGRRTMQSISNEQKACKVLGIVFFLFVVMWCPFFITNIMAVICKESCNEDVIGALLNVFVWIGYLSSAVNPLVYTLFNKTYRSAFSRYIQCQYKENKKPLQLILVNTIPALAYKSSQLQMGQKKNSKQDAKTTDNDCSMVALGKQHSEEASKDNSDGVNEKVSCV
Sequence of dopamine (DA) D1 receptors (P21728 whole entry): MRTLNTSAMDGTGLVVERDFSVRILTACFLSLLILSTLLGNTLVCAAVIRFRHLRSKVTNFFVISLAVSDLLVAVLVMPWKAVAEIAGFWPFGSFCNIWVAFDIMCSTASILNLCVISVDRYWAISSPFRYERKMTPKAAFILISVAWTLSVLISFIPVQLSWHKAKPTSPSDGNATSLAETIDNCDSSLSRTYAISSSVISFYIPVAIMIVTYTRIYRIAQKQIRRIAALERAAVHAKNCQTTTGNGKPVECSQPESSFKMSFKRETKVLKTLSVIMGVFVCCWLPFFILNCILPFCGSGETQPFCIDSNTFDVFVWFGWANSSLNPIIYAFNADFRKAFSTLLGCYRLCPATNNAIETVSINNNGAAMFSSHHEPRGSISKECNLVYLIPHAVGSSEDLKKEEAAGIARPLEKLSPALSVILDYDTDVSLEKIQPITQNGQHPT
Sequence of dopamine D1 receptors (P21728 whole entry): as above
Sequence of CYP2D6 (P10635 whole entry): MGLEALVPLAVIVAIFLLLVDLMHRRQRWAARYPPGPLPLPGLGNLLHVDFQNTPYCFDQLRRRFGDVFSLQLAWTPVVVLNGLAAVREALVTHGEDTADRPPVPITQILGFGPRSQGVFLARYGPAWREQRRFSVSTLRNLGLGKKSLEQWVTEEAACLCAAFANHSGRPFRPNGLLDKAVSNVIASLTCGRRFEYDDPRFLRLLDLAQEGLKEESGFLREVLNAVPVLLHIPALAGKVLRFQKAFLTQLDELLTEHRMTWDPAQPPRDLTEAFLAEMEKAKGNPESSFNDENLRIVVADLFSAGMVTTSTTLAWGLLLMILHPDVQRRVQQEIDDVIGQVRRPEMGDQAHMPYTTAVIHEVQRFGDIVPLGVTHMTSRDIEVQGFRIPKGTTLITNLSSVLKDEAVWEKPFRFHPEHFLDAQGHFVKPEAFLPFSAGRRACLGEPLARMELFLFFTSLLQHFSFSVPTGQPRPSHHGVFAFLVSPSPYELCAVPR
Sequence of dopamine D2 receptors (P14416 whole entry): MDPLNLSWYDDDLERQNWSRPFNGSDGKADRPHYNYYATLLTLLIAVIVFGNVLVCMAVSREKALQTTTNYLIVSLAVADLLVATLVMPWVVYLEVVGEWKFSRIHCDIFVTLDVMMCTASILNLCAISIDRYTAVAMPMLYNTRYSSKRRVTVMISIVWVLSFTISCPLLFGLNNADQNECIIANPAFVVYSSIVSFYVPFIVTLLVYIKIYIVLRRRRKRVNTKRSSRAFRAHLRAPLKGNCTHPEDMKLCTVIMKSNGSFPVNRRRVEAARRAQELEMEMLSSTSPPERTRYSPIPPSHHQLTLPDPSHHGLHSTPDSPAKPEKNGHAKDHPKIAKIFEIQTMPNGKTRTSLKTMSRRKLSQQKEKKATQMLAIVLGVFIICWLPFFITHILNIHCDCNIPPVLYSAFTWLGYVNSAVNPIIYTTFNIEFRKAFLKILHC
Sequence of DA D2 receptors (P14416 whole entry): as above

Regarding `CC1(C)CN([C@@H]2C[C@@H](c3ccccc3)c3ccc(Cl)cc32)CCN1` [Compound I, trans-1-((1R,3S)-6-chloro-3-phenylindan-1-yl)-3,3-dimethylpiperazine], the “affinity for dopamine (DA) D1 receptors” value in [1] is recorded as “high affinity”. For the same molecule, on DA D2 receptors, the “affinity for DA D2 receptors” value is “high affinity”. Also, the “inhibition of CYP2D6” value at CYP2D6 is listed as “relatively weak inhibitor”. For the same molecule, the “functional activity at dopamine D1 receptors” value on dopamine D1 receptors is reported as “antagonist”. Further, the “functional activity at dopamine D2 receptors” value on dopamine D2 receptors is reported as “antagonist”. Further, the “functional activity at serotonin 5-HT2a receptors” value in [2] is listed as “antagonist”. Moreover, the “effect on the QT interval” value in the data set with rabbit model is on record as “relatively low effect”. Also, the “induction of dystonia (EPS liability)” value in data set [3] is given as “did not induce dystonia”. For the same molecule, the “affinity for alfa1 adrenoceptors” value in the data set on alfa1 adrenoceptors was “high affinity”.

(Values after patent publication US8569499B2, “Process for making trans-1-((1R,3S)-6-chloro-3-phenylindan-1-yl)-3,3-dimethylpiperazine” (H. Lundbeck A/S, priority 2005, dated 2013).)
